Tests used:
Assay in all cases: relative viability (nuclei count vs DMSO), 5 days (fraction); higher = more cells survive
Mirin + Pictilisib = compound: N=C1NC(=O)/C(=C/c2ccc(O)cc2)S1 [Mirin] + CS(=O)(=O)N1CCN(Cc2cc3nc(-c4cccc5[nH]ncc45)nc(N4CCOCC4)c3s2)CC1 [Pictilisib] (partner 1 µM)
Outline: (§1)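 Relative viability equals treated-well nuclei counts divided by vehicle-well nuclei counts. Counts came from 4× images of lung cancer cell lines grown in 1536-well plates for 5 days after pin-tool dosing on the day after seeding. Dosing used one drug alone or a fixed anchor-drug dose plus five library-drug doses (not always all listed) in √10 steps, and values are medians of duplicate plates.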

Mirin + Olaparib = compound: N=C1NC(=O)/C(=C/c2ccc(O)cc2)S1 [Mirin] + O=C(c1cc(Cc2n[nH]c(=O)c3ccccc23)ccc1F)N1CCN(C(=O)C2CC2)CC1 [Olaparib] (partner 8 µM)
Outline: as §1

[1] = compound: CCn1c(-c2nonc2N)nc2cnc(Oc3cccc(NC(=O)c4ccc(OCCN5CCOCC5)cc4)c3)cc21 + O=C(c1cc(Cc2n[nH]c(=O)c3ccccc23)ccc1F)N1CCN(C(=O)C2CC2)CC1 [Olaparib] (partner 8 µM)
Outline: as §1

[2] = compound: CCn1c(-c2nonc2N)nc2cnc(Oc3cccc(NC(=O)c4ccc(OCCN5CCOCC5)cc4)c3)cc21 + COc1cccc2cc(-c3nc([C@H]4CC[C@H](C(=O)O)CC4)n4ncnc(N)c34)[nH]c12 [OSI-027] (partner 0.5 µM)
Outline: as §1

Cell Line | relative viability (Mirin + Pictilisib; first compound 0.25 µM) | relative viability (Mirin + Pictilisib; first compound 2.5 µM) | relative viability (Mirin + Pictilisib; first compound 7.906 µM) | relative viability (Mirin + Pictilisib; first compound 25 µM) | relative viability (Mirin + Olaparib; first compound 0.25 µM) | relative viability (Mirin + Olaparib; first compound 0.7906 µM) | relative viability (Mirin + Olaparib; first compound 2.5 µM) | relative viability (Mirin + Olaparib; first compound 7.906 µM) | relative viability (Mirin + Olaparib; first compound 25 µM) | relative viability ([1]; first compound 0.04 µM) | relative viability ([1]; first compound 0.1265 µM) | relative viability ([1]; first compound 0.4 µM) | relative viability ([1]; first compound 1.265 µM) | relative viability ([1]; first compound 4 µM) | relative viability ([2]; first compound 0.04 µM) | relative viability ([2]; first compound 0.1265 µM) | relative viability ([2]; first compound 0.4 µM) | relative viability ([2]; first compound 1.265 µM) | relative viability ([2]; first compound 4 µM) | relative viability (Mirin + Pictilisib; first compound 0.7906 µM)
NCI-H1915 | 0.98 | 1.04 | 0.916 | 0.935 | 0.283 | 0.221 | 0.272 | 0.223 | 0.182 | 0.252 | 0.265 | 0.251 | 0.185 | 0.167 | 0.695 | 0.626 | 0.476 | 0.259 | 0.252 | 
BEN | 0.484 | 0.619 | 0.416 | 0.312 | 0.958 | 0.987 | 1.21 | 0.962 | 0.638 | 1.29 | 0.894 | 0.714 | 0.368 | 0.415 | 0.27 | 0.267 | 0.243 | 0.266 | 0.24 | 0.656
NCI-H1437 | 0.525 | 0.487 | 0.272 | 0.165 | 0.637 | 0.641 | 0.607 | 0.625 | 0.549 | 0.696 | 0.624 | 0.591 | 0.485 | 0.49 | 0.946 | 0.742 | 0.553 | 0.74 | 0.662 | 0.436
EMC-BAC-2 | 0.56 | 0.532 | 0.508 | 0.52 | 0.505 | 0.508 | 0.48 | 0.382 | 0.429 | 0.474 | 0.42 | 0.38 | 0.27 | 0.292 | 0.364 | 0.287 | 0.161 | 0.18 | 0.2 | 0.546
NCI-H2087 | 0.833 | 0.818 | 0.708 | 0.788 | 0.602 | 0.559 | 0.611 | 0.671 | 0.498 | 0.802 | 0.539 | 0.559 | 0.483 | 0.586 | 0.824 | 0.719 | 0.418 | 0.535 | 0.551 | 0.669
NCI-H650 | 0.835 | 0.945 |  | 0.744 | 0.365 | 0.433 | 0.352 | 0.307 | 0.366 | 0.374 | 0.377 | 0.279 | 0.259 | 0.236 | 0.601 | 0.39 | 0.254 | 0.238 | 0.265 | 
LXF-289 | 0.744 | 0.803 | 0.844 | 0.701 | 1.04 | 1.04 | 1 | 1.04 | 0.975 | 1.07 | 1.22 | 1.01 | 1.12 | 0.984 | 0.924 | 0.758 | 0.208 | 0.443 | 0.361 | 0.747
LOU-NH91 | 0.499 | 0.496 | 0.502 | 0.46 | 0.927 | 0.976 | 0.946 | 0.943 | 1.09 | 0.919 | 0.756 | 0.665 | 0.494 | 0.534 | 0.741 | 0.561 | 0.44 | 0.426 | 0.471 | 

— the supplement of paper PMC10307832
